Data published in patent publication US8541461B2 (Astex Therapeutics Limited, priority 2005, dated 2013).

Molecular target: T1, PKB-PIF fusion protein (protein kinase B) (Homo sapiens, UniProt P31751)
T1 construct: PIF (fusion partner); made in house
Assay: Measurement of PKB kinase inhibitory activity (IC50)
Type: biochemical
Settings: 0.6 nM enzyme, 30 μM ATP/γ33P-ATP, 25 μM AKTide-2T substrate; read-out: PKB IC50
Method: The reaction is allowed to proceed for 20 minutes before addition of excess orthophosphoric acid to quench activity. The reaction mixture is transferred to a phosphocellulose filter plate where the peptide binds and the unused ATP is washed away. After washing, scintillant is added and the incorporated activity measured by scintillation counting.

T1 sequence (P31751 with tags, fused parts or gaps limits assumed): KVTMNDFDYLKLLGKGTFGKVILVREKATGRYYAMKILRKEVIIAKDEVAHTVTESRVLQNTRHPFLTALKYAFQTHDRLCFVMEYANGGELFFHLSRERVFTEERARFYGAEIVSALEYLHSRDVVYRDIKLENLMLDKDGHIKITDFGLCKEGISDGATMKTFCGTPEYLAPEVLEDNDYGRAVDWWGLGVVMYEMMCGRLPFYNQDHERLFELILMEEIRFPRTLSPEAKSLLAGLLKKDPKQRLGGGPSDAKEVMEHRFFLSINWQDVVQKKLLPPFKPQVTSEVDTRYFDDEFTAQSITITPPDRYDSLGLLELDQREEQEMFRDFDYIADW

Row | SMILES | IC50 [µM]
1 | NCCC(c1ccc(Cl)cc1)c1ccc(-c2cn[nH]c2)cc1 (stereo not drawn) [Example 12, 3-(4-Chloro-phenyl)-3-[4-(1H-pyrazol-4-yl)-phenyl]-propylamine] | < 1
2 | NC(Cc1ccc(-c2cn[nH]c2)cc1)c1ccccc1 (stereo not drawn) [Example 36, 1-Phenyl-2-[4-(1H-pyrazol-4-yl)-phenyl]-ethylamine] | < 5
3 | Clc1ccc(C2(c3ccc(-c4cn[nH]c4)cc3)CCNCC2)cc1 [Example 14, 4-(4-Chloro-phenyl)-4-[4-(1H-pyrazol-4-yl)-phenyl]-piperidine] | < 1
4 | CNC(=O)C(c1ccc(-c2cn[nH]c2)cc1)c1ccc(-c2cn[nH]c2)cc1 [Example 41, N-Methyl-2,2-bis-[4-(1H-pyrazol-4-yl)-phenyl]-acetamide] | < 50
5 | CN(C)CCC(c1ccc(-c2cn[nH]c2)cc1)c1ccccn1 (stereo not drawn) [Example 19, Dimethyl-{3-[4-(1H-pyrazol-4-yl)-phenyl]-3-pyridin-2-yl-propyl}-amine] | < 5
6 | COc1ccc(C2(c3ccc(-c4cn[nH]c4)cc3)CCNCC2)cc1 [Example 15, 4-(4-Methoxy-phenyl)-4-[4-(1H-pyrazol-4-yl)-phenyl]-piperidine] | < 1
7 | NCC(Cc1ccccc1)c1cccc(-c2cn[nH]c2)c1 (stereo not drawn) [Example 6, 3-Phenyl-2-[3-(1H-pyrazol-4-yl)-phenyl]-propylamine] | < 5
8 | c1ccc(OC(CCn2ccnc2)c2ccc(-c3cn[nH]c3)cc2)cc1 (stereo not drawn) [Example 62, 4-[4-(3-Imidazol-1-yl-1-phenoxy-propyl)-phenyl]-1H-pyrazole] | < 50
9 | OCCCNCC(c1ccc(Cl)cc1)c1ccc(-c2cn[nH]c2)cc1 (stereo not drawn) [Example 72] | < 1
10 | CNCC(c1ccc(-c2cccnc2)cc1)c1ccc(-c2cn[nH]c2)cc1 (stereo not drawn) [Example 75, Methyl-[2-[4-(1H-pyrazol-4-yl)-phenyl]-2-(4-pyridin-3-yl-phenyl)-ethyl]-amine] | < 5
11 | Clc1ccc(C(CN2CCCC2)c2ccc(-c3cn[nH]c3)cc2)cc1 (stereo not drawn) [Example 25, 4-{4-[1-(4-Chloro-phenyl)-2-pyrrolidin-1-yl-ethyl]-phenyl}-1H-pyrazole] | < 1
12 | NC(=O)CC(c1ccc(-c2cn[nH]c2)cc1)c1ccc(Cl)c(Cl)c1 (stereo not drawn) [Example 69, 3-(3,4-Dichloro-phenyl)-3-[4-(1H-pyrazol-4-yl)-phenyl]-propionamide] | < 1
13 | N#Cc1n[nH]cc1-c1ccc(C2(c3ccc(Cl)cc3)CCNCC2)cc1 [Example 55, 4-{4-[4-(4-Chloro-phenyl)-piperidin-4-yl]-phenyl}-1H-pyrazole-3-carbonitrile] | < 5
14 | NCCC(c1ccc(-c2cn[nH]c2)nc1)c1ccc(Cl)c(Cl)c1 (stereo not drawn) [Example 94, 3-(3,4-Dichloro-phenyl)-3-[6-(1H-pyrazol-4-yl)-pyridin-3-yl]-propylamine] | < 1
15 | CN(C)CC(c1ccc(Cl)cc1)c1ccc(-c2cn[nH]c2)cc1 (stereo not drawn) [Example 20, {2-(4-Chloro-phenyl)-2-[4-(1H-pyrazol-4-yl)-phenyl]-ethyl}-dimethyl-amine] | < 1
16 | CC(C)NCC(c1ccc(Cl)cc1)c1ccc(-c2cn[nH]c2)cc1 (stereo not drawn) [Example 26, {2-(4-Chloro-phenyl)-2-[4-(1H-pyrazol-4-yl)-phenyl]-ethyl}-isopropyl-amine] | < 1

Row | SMILES | IC50 [µM]
17 | CN1CCC(c2ccc(Cl)cc2)(c2ccc(-c3cn[nH]c3)cc2)CC1 [Example 16, 4-(4-Chloro-phenyl)-1-methyl-4-[4-(1H-pyrazol-4-yl)-phenyl]-piperidine] | < 1
18 | CNCCC(c1ccc(Cl)cc1)c1ccc(-c2cn[nH]c2)cc1 (stereo not drawn) [Example 8, {3-(4-Chloro-phenyl)-3-[4-(1H-pyrazol-4-yl)-phenyl]-propyl}-methyl-amine] | < 1
19 | NC(c1ccc(Cl)cc1)c1ccc(-c2cn[nH]c2)cc1 (stereo not drawn) [Example 104, C-(4-Chloro-phenyl)-C-[4-(1H-pyrazol-4-yl)-phenyl]-methylamine] | < 1
20 | c1ccc(C2(c3ccc(-c4cn[nH]c4)cc3)CCNCC2)cc1 [Example 17, 4-Phenyl-4-[4-(1H-pyrazol-4-yl)-phenyl]-piperidine] | < 1
21 | Clc1ccc(C(CN2CCCCC2)c2ccc(-c3cn[nH]c3)cc2)cc1 (stereo not drawn) [Example 34, 1-{2-(4-Chloro-phenyl)-2-[4-(1H-pyrazol-4-yl)-phenyl]-ethyl}-piperidine] | < 1
22 | Cc1n[nH]c(C)c1-c1ccc(C2(c3ccccc3)CCNCC2)cc1 [Example 18, 4-[4-(3,5-Dimethyl-1H-pyrazol-4-yl)-phenyl]-4-phenyl-piperidine] | < 5
23 | CN1CCCN(C(c2ccccc2)c2ccc(-c3cn[nH]c3)cc2)CC1 (stereo not drawn) [Example 58, 1-Methyl-4-{phenyl-[4-(1H-pyrazol-4-yl)-phenyl]-methyl}-[1,4]diazepane] | < 5
24 | CN(C)CC(c1ccccc1)c1ccc(-c2cn[nH]c2)cc1 (stereo not drawn) [Example 27, Dimethyl-{2-phenyl-2-[4-(1H-pyrazol-4-yl)-phenyl]-ethyl}-amine] | < 1
25 | Clc1ccc(C(CCn2ccnc2)c2ccc(-c3cn[nH]c3)cc2)cc1 (stereo not drawn) [Example 61, 4-{4-[1-(4-Chloro-phenyl)-3-imidazol-1-yl-propyl]-phenyl}-1H-pyrazole] | < 1
26 | Fc1cc(C2(c3ccc(-c4cn[nH]c4)cc3)CCNCC2)ccc1Cl [Example 87, 4-(4-Chloro-3-fluoro-phenyl)-4-[4-(1H-pyrazol-4-yl)-phenyl]-piperidine] | < 1
27 | c1cc(C2(c3ccc(-c4cn[nH]c4)cc3)CCNCC2)ccn1 [Example 89, 4-[4-(1H-Pyrazol-4-yl)-phenyl]-1,2,3,4,5,6-hexahydro-[4,4′]bipyridinyl] | < 5
28 | CNCC(c1ccc(Cl)cc1)c1ccc(-c2cn[nH]c2)cc1 (stereo not drawn) [Example 21, {2-(4-Chloro-phenyl)-2-[4-(1H-pyrazol-4-yl)-phenyl]-ethyl}-methyl-amine] | < 1
29 | CNCC(Oc1ccc(Cl)cc1)c1ccc(-c2cn[nH]c2)cc1 (stereo not drawn) [Example 71, {2-(4-Chloro-phenoxy)-2-[4-(1H-pyrazol-4-yl)-phenyl]-ethyl}-methyl-amine] | < 1
30 | CNCCC(c1ccc(O)cc1)c1ccc(-c2cn[nH]c2)cc1 (stereo not drawn) [Example 76, 4-{3-Methylamino-1-[4-(1H-pyrazol-4-yl)-phenyl]-propyl}-phenol] | < 1
31 | CNCC(O)(c1ccc(-c2cn[nH]c2)cc1)c1ccc([N+](=O)[O-])cc1 (stereo not drawn) [Example 91, 2-Methylamino-1-(4-nitro-phenyl)-1-[4-(1H-pyrazol-4-yl)-phenyl]-ethanol] | < 1

Next, values leading:

Row | IC50 [µM] | SMILES
32 | < 1 | CNCC(c1ccc(Cl)cc1)c1ccc(-c2cn[nH]c2)cc1 (stereo in doubt) [Example 22, {2-(4-Chloro-phenyl)-2-[4-(1H-pyrazol-4-yl)-phenyl]-ethyl}-methyl-amine (R)]
33 | < 1 | CNCCC(c1ccc(-c2cn[nH]c2)cc1)c1ccc(F)c(F)c1 (stereo not drawn) [Example 9, {3-(3,4-Difluoro-phenyl)-3-[4-(1H-pyrazol-4-yl)-phenyl]-propyl}-methyl-amine]
34 | < 1 | Clc1ccc(C(CN2CCNCC2)c2ccc(-c3cn[nH]c3)cc2)cc1 (stereo not drawn) [Example 33, 1-{2-(4-Chloro-phenyl)-2-[4-(1H-pyrazol-4-yl)-phenyl]-ethyl}-piperazine]
35 | < 5 | NC(=O)C(c1ccc(Cl)cc1)c1ccc(-c2cn[nH]c2)cc1 (stereo not drawn) [Example 32, 2-(4-Chloro-phenyl)-2-[4-(1H-pyrazol-4-yl)-phenyl]-acetamide]
36 | < 5 | Clc1ccc(C(CN2CCOCC2)c2ccc(-c3cn[nH]c3)cc2)cc1 (stereo not drawn) [Example 24, 4-{2-(4-Chloro-phenyl)-2-[4-(1H-pyrazol-4-yl)-phenyl]-ethyl}-morpholine]
37 | < 5 | N#CC(Cc1ccccc1)c1cccc(-c2cn[nH]c2)c1 (stereo not drawn) [Example 2, 3-Phenyl-2-[3-(1H-pyrazol-4-yl)-phenyl]-propionitrile]
38 | < 50 | CNC(=O)C(c1ccc(Cl)cc1)c1ccc(-c2cn[nH]c2)cc1 (stereo not drawn) [Example 40, 2-(4-Chloro-phenyl)-N-methyl-2-[4-(1H-pyrazol-4-yl)-phenyl]-acetamide]
39 | < 5 | NC(=O)CC(c1ccc(Cl)cc1)c1ccc(-c2cn[nH]c2)cc1 (stereo not drawn) [Example 11, 3-(4-Chloro-phenyl)-3-[4-(1H-pyrazol-4-yl)-phenyl]-propionamide]
40 | < 1 | CNCCC(c1ccc(-c2cn[nH]c2)cc1)c1cccc(Cl)c1 (stereo not drawn) [Example 10, {3-(3-Chloro-phenyl)-3-[4-(1H-pyrazol-4-yl)-phenyl]-propyl}-methyl-amine]
41 | < 5 | c1ccc(C(c2ccc(-c3cn[nH]c3)cc2)N2CCNCC2)cc1 (stereo not drawn) [Example 64]
42 | < 1 | CN(C)CC(c1ccc(-c2cn[nH]c2)cc1)c1ccc(-c2cn[nH]c2)cc1 [Example 28, {2,2-Bis-[4-(1H-pyrazol-4-yl)-phenyl]-ethyl}-dimethyl-amine]
43 | < 5 | Cc1n[nH]c(C)c1-c1ccc(C(CN)c2ccccc2)cc1 (stereo not drawn) [Example 3, 2-[4-(3,5-Dimethyl-1H-pyrazol-4-yl)-phenyl]-2-phenyl-ethylamine]
44 | < 1 | CNCC(c1ccc(-c2cn[nH]c2)cc1)c1ccc(-c2cn[nH]c2)cc1 [Example 29, {2,2-Bis-[4-(1H-pyrazol-4-yl)-phenyl]-ethyl}-methyl-amine]
45 | < 1 | Clc1ccc(C(CN2CCC2)c2ccc(-c3cn[nH]c3)cc2)cc1 (stereo not drawn) [Example 35, 4-{4-[2-Azetidin-1-yl-1-(4-chloro-phenyl)-ethyl]-phenyl}-1H-pyrazole]
46 | < 1 | NCCC(c1ccc(Oc2ccccc2)cc1)c1ccc(-c2cn[nH]c2)cc1 (stereo not drawn) [Example 56, 3-(4-Phenoxy-phenyl)-3-[4-(1H-pyrazol-4-yl)-phenyl]-propylamine]
47 | < 1 | Clc1ccc(C(CCN2CCC2)c2ccc(-c3cn[nH]c3)cc2)cc1 (stereo not drawn) [Example 51, 4-{4-[3-Azetidin-1-yl-1-(4-chloro-phenyl)-propyl]-phenyl}-1H-pyrazole]
48 | < 5 | COCCCOc1ccc(C2(c3ccc(-c4cn[nH]c4)cc3)CCNCC2)cc1 [Example 68, 4-[4-(3-Methoxy-propoxy)-phenyl]-4-[4-(1H-pyrazol-4-yl)-phenyl]-piperidine]
